Assay results from the supplement of paper PMC10307832.

What was measured:
Experiment in all cases: relative viability (nuclei count vs DMSO), 5 days (fraction); higher = more cells survive
[1] = compound: C[As](C)SC[C@H](NC(=O)CC[C@H](N)C(=O)O)C(=O)NCC(=O)O [Darinaparsin] + C[C@@H](Oc1cc(-c2cnn(C3CCNCC3)c2)cnc1N)c1c(Cl)ccc(F)c1Cl [Crizotinib] (partner 1 µM)
Method in brief: (§1)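 For relative viability, nuclei counts in treated wells were divided by those in vehicle wells. Lung cancer cell lines had been pin-tool dosed in 1536-well plates the day after seeding and cultured for 5 days, then fixed and stained in one step (final 0.05% Triton X-100, 1% formaldehyde, 1 ug/ml Hoechst) and imaged at 4×. Doses were one drug alone or a fixed anchor-drug dose plus five library-drug doses (not always all listed) in √10 steps, and values are duplicate-plate medians.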

AZ628 + Olaparib = compound: CC1=C(C=C(C=C1)NC(=O)C2=CC(=CC=C2)C(C)(C)C#N)NC3=CC4=C(C=C3)N=CN(C4=O)C [AZ628] + O=C(c1cc(Cc2n[nH]c(=O)c3ccccc23)ccc1F)N1CCN(C(=O)C2CC2)CC1 [Olaparib] (partner 8 µM)
Method in brief: as §1

QS11 + Pictilisib = compound: C1CC2=C(C1)C=C(C=C2)OC3=NC(=C4C(=N3)N(C=N4)CC5=CC=C(C=C5)C6=CC=CC=C6)N[C@@H](CC7=CC=CC=C7)CO [QS11] + CS(=O)(=O)N1CCN(Cc2cc3nc(-c4cccc5[nH]ncc45)nc(N4CCOCC4)c3s2)CC1 [Pictilisib] (partner 1 µM)
Method in brief: as §1

AZ628 + Phenformin = compound: CC1=C(C=C(C=C1)NC(=O)C2=CC(=CC=C2)C(C)(C)C#N)NC3=CC4=C(C=C3)N=CN(C4=O)C [AZ628] + N=C(N)NC(=N)NCCc1ccccc1 [Phenformin] (partner 250 µM)
Method in brief: as §1

Cell Line | relative viability ([1]; first compound 0.08 µM) | relative viability ([1]; first compound 0.8 µM) | relative viability ([1]; first compound 2.53 µM) | relative viability ([1]; first compound 8 µM) | relative viability (AZ628 + Olaparib; first compound 0.08 µM) | relative viability (AZ628 + Olaparib; first compound 0.253 µM) | relative viability (AZ628 + Olaparib; first compound 0.8 µM) | relative viability (AZ628 + Olaparib; first compound 2.53 µM) | relative viability (AZ628 + Olaparib; first compound 8 µM) | relative viability (QS11 + Pictilisib; first compound 0.08 µM) | relative viability (QS11 + Pictilisib; first compound 0.253 µM) | relative viability (QS11 + Pictilisib; first compound 0.8 µM) | relative viability (QS11 + Pictilisib; first compound 2.53 µM) | relative viability (QS11 + Pictilisib; first compound 8 µM) | relative viability (AZ628 + Phenformin; first compound 0.08 µM) | relative viability (AZ628 + Phenformin; first compound 0.253 µM) | relative viability (AZ628 + Phenformin; first compound 0.8 µM) | relative viability (AZ628 + Phenformin; first compound 2.53 µM) | relative viability (AZ628 + Phenformin; first compound 8 µM)
ABC-1 | 1.21 | 1.16 | 0.875 | 1.29 | 0.987 | 0.712 | 0.868 | 0.508 | 0.732 | 0.657 | 0.6 | 0.651 | 0.764 | 1.06 | 0.274 | 0.188 | 0.205 | 0.211 | 0.235
LK-2 | 0.208 | – | 0.208 | 0.196 | 0.874 | 0.549 | 0.684 | 0.689 | 0.309 | 0.605 | 0.698 | 0.537 | 0.547 | 0.602 | 0.508 | 0.312 | 0.557 | 0.304 | 0.172
NCI-H23 | 0.753 | 0.428 | 0.412 | 0.515 | 0.316 | 0.312 | 0.331 | 0.227 | 0.216 | 0.394 | 0.413 | 0.405 | 0.433 | 0.361 | 0.841 | 0.806 | 0.619 | 0.716 | 0.595
NCI-H2228 | 0.613 | 0.506 | 0.484 | 0.512 | 0.585 | 0.583 | 0.847 | 0.698 | 0.541 | 0.254 | 0.507 | 0.513 | 0.427 | 0.319 | 0.25 | 0.274 | 0.252 | 0.218 | 0.206
NCI-H441 | 0.956 | 0.729 | 0.676 | 0.701 | 0.547 | 0.532 | 0.738 | 0.699 | 0.542 | 0.472 | 0.529 | 0.501 | 0.5 | 0.608 | 0.991 | 0.71 | 0.822 | 0.712 | 0.469
NCI-H460 | – | 0.91 | 0.607 | 1.56 | 0.543 | 0.397 | 0.342 | 0.414 | 0.371 | 0.301 | 0.351 | 0.532 | 0.352 | 0.473 | 0.52 | 0.511 | 0.452 | 0.404 | 0.189
LU99A | 0.626 | 0.574 | 0.461 | 0.593 | 0.269 | 0.255 | 0.272 | 0.296 | 0.214 | 0.343 | 0.317 | 0.357 | 0.296 | 0.307 | 0.808 | 0.67 | 0.694 | 0.782 | 0.551
NCI-H358 | 0.566 | 0.499 | 0.576 | 0.673 | 0.567 | 0.457 | 0.361 | 0.417 | 0.295 | 0.338 | 0.315 | 0.387 | 0.564 | 0.553 | 0.32 | 0.208 | 0.216 | 0.222 | 0.216
UMC-11 | 0.678 | 0.577 | 0.407 | 0.559 | 0.393 | 0.357 | 0.291 | 0.344 | 0.331 | 0.748 | 0.844 | 0.899 | 0.901 | 1.12 | 0.322 | 0.268 | 0.339 | 0.294 | 0.255
LXF-289 | 0.855 | 0.814 | 0.682 | 0.906 | 1.13 | 1.01 | 0.922 | 1.08 | 0.756 | 0.761 | 0.796 | 0.673 | 0.704 | 0.754 | 0.527 | 0.499 | 0.473 | 0.501 | 0.362
NCI-H647 | 1.66 | 1.1 | 1.16 | 1.6 | 0.848 | 0.616 | 0.495 | 0.551 | 0.573 | – | 0.379 | 0.41 | 0.685 | 0.478 | 0.695 | 0.525 | 0.467 | 0.323 | 0.405
NCI-H1651 | 0.87 | 0.895 | 0.845 | 1.07 | 0.171 | 0.186 | 0.172 | 0.184 | 0.191 | 0.604 | 0.657 | 0.53 | 0.471 | 0.439 | 0.396 | 0.316 | 0.334 | 0.312 | 0.36
NCI-H838 | 0.996 | 0.803 | 0.776 | 0.976 | 0.765 | 0.821 | 0.713 | 0.727 | 0.623 | 0.399 | 0.388 | 0.394 | 0.382 | 0.476 | 0.666 | 0.551 | 0.502 | 0.493 | 0.474
NCI-H661 | 1.08 | 1.11 | 0.929 | 1.1 | 0.748 | 0.702 | 0.699 | 0.727 | 0.644 | 0.424 | 0.397 | 0.407 | 0.376 | 0.383 | 0.283 | 0.266 | 0.278 | 0.292 | 0.275
NCI-H1734 | 0.892 | 0.724 | 0.686 | 0.736 | 0.684 | 0.584 | 0.516 | 0.6 | 0.382 | 0.44 | 0.433 | 0.408 | 0.38 | 0.358 | 0.383 | 0.346 | 0.282 | 0.327 | 0.247
HCC-827 | 0.959 | 0.853 | 0.979 | 0.965 | 0.652 | 0.621 | 0.704 | 0.661 | 0.528 | 0.881 | 1.03 | 0.953 | 1.13 | 0.95 | 0.445 | 0.421 | 0.434 | 0.374 | 0.335
201T | 1.09 | 1.02 | 1 | 1.09 | 0.909 | 0.865 | 0.908 | 0.868 | 0.926 | 0.669 | 0.599 | 0.634 | 0.672 | 0.611 | 0.507 | 0.455 | 0.245 | 0.438 | 0.445
